Values of other authors, collected in article PMC5748270 (Organic & biomolecular chemistry, 2017).

Columns and labels:
B16 melanoma = details: comparably to mitomycin C
Plasmodium falciparum K1 = details: selectivity on par with artesunate
HSV-1 = details: read-out: HSV-1 antiviral EC50

For `O=c1c(O)cccc(O)c1O` [3,7-dHT, 3,7-Dihydroxytropolones], the “Lifespan of mice bearing B16 melanoma” value (B16 melanoma) is given as “increases the lifespan”, the “Activity against B16 melanoma cells relative to αHTs” value (B16 melanoma cells) is given as “an order of magnitude greater than αHTs” and the “cell-based HIV antiviral activity” value (HIV) is given as “promising cell-based HIV antiviral activity”.
In the case of `Nc1nc2c(ncn2COCCO)c(=O)[nH]1` [ACV, acyclovir], the “Potency against HSV-2 relative to HSV-1” value (HSV-2; obtained previously under identical conditions) is listed as “nearly an order of magnitude less potent”.
For `O=C(O)c1cc(O)c(O)c(=O)c(O)c1` [puberulic acid], the Antimalarial activity (Plasmodium falciparum K1) is given as “potent antimalarial activity”.
In the case of manicol, the EC50 (HSV-1) is given as 350 nM and the EC50 (HSV-2; read-out: HSV-2 antiviral EC50) is given as 580 nM.
